Measured values from patent US7491729B2, “3-Substituted 3,4-dihydro-thieno[2,3-d]pyrimidin-4-one derivatives, production and use thereof” (Abbott GmbH & Co. KG, priority 2002, dated 2009).
pKi: −log10 of the molar value.

Tests used:
[1] = biological target: T1, 5-HT1A receptors (Homo sapiens, UniProt P08908); experiment: Receptor binding studies, displacement of (3H)-8-OH-DPAT on membranes of HEK293 cells expressing 5-HT1A receptors; conditions: 0.2 nM (3H)-8-OH-DPAT, 22° C.
T1 construct: expressed in transfected cells; host or cells: HEK293
T1 sequence (P08908 1-422): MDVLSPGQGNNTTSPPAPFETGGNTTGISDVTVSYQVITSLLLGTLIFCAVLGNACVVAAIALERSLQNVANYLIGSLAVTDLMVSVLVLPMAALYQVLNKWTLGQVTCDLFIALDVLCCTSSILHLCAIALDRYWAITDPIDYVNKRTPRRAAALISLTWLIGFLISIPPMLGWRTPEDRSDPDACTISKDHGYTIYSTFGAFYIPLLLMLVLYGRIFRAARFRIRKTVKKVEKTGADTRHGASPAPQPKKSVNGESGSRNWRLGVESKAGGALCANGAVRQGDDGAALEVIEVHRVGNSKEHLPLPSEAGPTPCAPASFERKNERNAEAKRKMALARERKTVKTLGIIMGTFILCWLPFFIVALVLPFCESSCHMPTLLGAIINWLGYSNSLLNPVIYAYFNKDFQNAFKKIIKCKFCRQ
Protocol: (§1) HEK293 cells which expressed 5-HT1A or 5-HT1B receptors were cultivated in RPMI 1640 (Life Technologies, Eggenstein, Germany) comprising 10% fetal calf serum. All the culture media were supplemented with 2 mM L-glutamine and 400 mg/l Geneticin G418 (Life Technologies). The cells were grown in a moist atmosphere with 6% CO2 at 37° C. and detached with a buffer comprising 0.0004% EDTA, 0.02% EGTA, 2.68 mM KCl, 1.47 mM KH2PO4, 6.46 mM Na2HPO4 and 136.9 mM NaCl (pH 7.4). The harvested cells were washed once with cold phosphate-buffered Dulbecco's saline solution (PBS), centrifuged (200×g; 10 minutes) and adjusted to a cell density of 10^8 cells per cryovial. After renewed centrifugation, the pellets were resuspended in 1 ml of ice-cold dissolving buffer (5 mM Tris/HCl (pH 7.4), 10% glycerol) and incubated at 4° C. for 30 minutes. The suspension was then centrifuged at 900×g for 10 minutes, the supernatants were removed, and the pellets were stored in liquid nitrogen until used.
(§2) Initially, the affinities of the radio ligands ((^3H)-8-OH-DPAT for 5-HT1A receptors; or (^3H)-5-CT for 5-HT1B receptors) were calculated from saturation plots where triplicate determinations of the specific and nonspecific binding were carried out for each test concentration. Each sample was composed of 50 μg of cellular proteins of the particular membrane preparation, the radio ligand with or without competing compound (5-HT) in a total volume of 0.5 ml. A buffer consisting of 50 mM Tris/HCl (pH 7.4) and 5 mM CaCl2 was used. Incubation was at 22° C. for 9 minutes.
(§3) For Ki determinations, the test compounds were titrated three times in displacement experiments against a fixed concentration of radio ligand ((0.2 nM (^3H)-8-OH-DPAT; or 0.2 nM (^3H)-5-CT). The other test conditions corresponded to those described for the saturation experiments. The total and the nonspecific binding (10 μM 5-HT as competitor of 5-HT1A and 100 μM for 5-HT1B) was determined for each experimental series.
(§4) The incubation for binding and displacement was terminated by filtering and washing the samples on glass fiber filters (GF/B) using a Skatron 7200 cell harvester (Zinsser, Frankfurt, Germany). The sample filters were transferred into scintillation vials comprising 5 ml of scintillator (Ultima Gold XR) and agitated for 1 hour, and then measured in a liquid scintillation counter. Saturation and competition plots were calculated with the aid of a computer program based on LIGAND (Mundson, P J and Reodbard, D; Anal. Biochem. 107, 220 (1980)).

[2] = biological target: T2, 5-HT1B receptors (Homo sapiens, UniProt P28222); experiment: Receptor binding studies, displacement of (3H)-5-CT on membranes of HEK293 cells expressing 5-HT1B receptors; conditions: 0.2 nM (3H)-5-CT, 22° C.
T2 construct: expressed in transfected cells; host or cells: HEK293
Protocol: as §1, §2, §3, §4

[3] = tested on: serotonin release in the cortex; conditions: after systemic administration; cited from earlier work

T2 sequence (P28222 whole entry): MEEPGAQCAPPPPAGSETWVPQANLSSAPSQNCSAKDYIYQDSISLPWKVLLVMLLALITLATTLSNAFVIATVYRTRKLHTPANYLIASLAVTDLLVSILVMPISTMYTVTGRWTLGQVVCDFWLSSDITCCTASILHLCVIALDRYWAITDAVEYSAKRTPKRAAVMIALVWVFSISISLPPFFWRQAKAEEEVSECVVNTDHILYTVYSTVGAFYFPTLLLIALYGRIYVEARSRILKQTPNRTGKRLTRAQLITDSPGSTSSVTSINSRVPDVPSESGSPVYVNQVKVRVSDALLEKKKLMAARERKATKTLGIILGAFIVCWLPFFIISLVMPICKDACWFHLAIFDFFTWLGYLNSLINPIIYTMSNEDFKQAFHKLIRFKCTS

Row | SMILES | pKi [1] | pKi [2] | melting point | serotonin release in the cortex [3]
1 | Cc1ccc2onc(N3CCN(CCn4cnc5sc6c(c5c4=O)CCN(C)C6)CC3)c2c1 [Example 9, 7-Methyl-3-{2-[4-(5-methyl-1,2-benzisoxazol-3-yl)piperazin-1-ium-1-yl]ethyl}-4-oxo-3,4,5,6,7,8-hexahydropyrido[4′,3′:4,5]thieno[2,3-d]spyrimidin-7-ium dichloride] | 8.21 | 8.35 | – | –
2 | CN1CCc2c(sc3ncn(CCN4CCN(c5nc6ccccc6o5)CC4)c(=O)c23)C1 [Example 10, 3-{2-[4-(1,3-Benzoxazol-2-yl)piperazin-1-yl]ethyl}-7-methyl-5,6,7,8-tetrahydropyrido[4′,3′:4,5]thieno[2,3-d]pyrimidin-4(3H)-one] | – | – | 130 to 132 °C | –
3 | CN1CCc2c(sc3ncn(CCN4CCN(c5snc6ccccc56)CC4)c(=O)c23)C1 [Example 31, 4-(2,1-Benzisothiazol-3-yl)-1-[2-(7-methyl-4-oxo-5,6,7,8-tetrahydropyrido[4′,3′:4,5]thieno[2,3-d]pyrimidin-3(4H)-yl)ethyl]piperazin-1-ium chloride] | 7.37 | 7.61 | – | –
4 | CN1CCc2c(sc3ncn(CCN4CC=C(c5c[nH]c6ccccc56)CC4)c(=O)c23)C1 [Example 20, 3-{2-[4-(1H-Indol-3-yl)-3,6-dihydropyridin-1(2H)-yl]ethyl}-7-methyl-5,6,7,8-tetrahydropyrido[4′,3′:4,5]thieno[2,3-d]pyrimidin-4(3H)-one] | 8.92 | 9.00 | – | –
5 | COc1ccc2onc(N3CCN(CCn4cnc5sc6c(c5c4=O)CCN(C)C6)CC3)c2c1 [Example 15, 4-(5-Methoxy-1,2-benzisoxazol-3-yl)-1-[2-(7-methyl-4-oxo-5,6,7,8-tetrahydropyrido[4′,3′:4,5]thieno[2,3-d]pyrimidin-3(4H)-yl)ethyl]piperazin-1-ium chloride] | 7.86 | 8.10 | – | –
6 | CN1CCc2c(sc3ncn(CCN4CCN(c5nc6cc(C(F)(F)F)ccc6s5)CC4)c(=O)c23)C1 [Example 6, 7-Methyl-3-(2-{4-[5-(trifluoromethyl)-1,3-benzothiazol-2-yl]piperazin-1-yl}ethyl)-5,6,7,8-tetrahydropyrido[4′,3′:4,5]thieno[2,3-d]pyrimidin-4(3H)-one] | – | – | 166 to 167 °C | –
7 | CN1CCc2c(sc3ncn(CCN4CCN(c5nsc6ccccc56)CC4)c(=O)c23)C1 [Example 4, 3-{2-[4-(1,2-Benzisothiazol-3-yl)piperazin-1-yl]ethyl}-7-methyl-5,6,7,8-tetrahydropyrido[4′,3′:4,5]thieno[2,3-d]pyrimidin-4(3H)-one] | 8.85 | 9.05 | 82 to 84 °C | –
8 | CN1CCc2c(sc3ncn(CCN4CCC(c5cc(-c6cccs6)[nH]n5)CC4)c(=O)c23)C1 [Example 24, 1-[2-(7-Methyl-4-oxo-5,6,7,8-tetrahydropyrido[4′,3′:4,5]thieno[2,3-d]pyrimidin-3(4H)-yl)ethyl]-4-[5-(2-thienyl)-1 H-pyrazol-3-yl]piperidinium chloride] | 7.01 | 6.54 | – | –
9 | CN1CCc2c(sc3ncn(CCN4CCN(c5n[nH]c6ccccc56)CC4)c(=O)c23)C1 [Example 13, 3-{2-[4-(1H-Indazol-3-yl)piperazin-1-yl]ethyl}-7-methyl-5,6,7,8-tetrahydropyrido[4′,3′:4,5]thieno[2,3-d]pyrimidin-4(3H)-one] | 7.94 | 8.46 | – | –
10 | COc1ccc(NC(=O)c2ccc(-c3ccc(-c4noc(C)n4)cc3C)cc2)cc1N1CCN(C)CC1 [GR 127 935] | – | – | – | reduced
11 | CN1CCc2c(sc3ncn(CCN4CCN(c5nc6ccc(Cl)cc6s5)CC4)c(=O)c23)C1 [Example 7, 3-{2-[4-(6-Chloro-1,3-benzothiazol-2-yl)piperazin-1-yl]ethyl}-7-methyl-5,6,7,8-tetrahydropyrido[4′,3′:4,5]thieno[2,3-]pyrimidin-4(3H)-one] | – | – | 160 to 162 °C | –
12 | COc1ccc2[nH]cc(C3=CCN(CCn4cnc5sc6c(c5c4=O)CCN(C)C6)CC3)c2c1 [Example 32, 3-{2-[4-(5-methoxy-1H-indol-3-yl)-3,6-dihydropyridin-1(2H)-yl]ethyl}-7-methyl-5,6,7,8,-tetrahydropyrido[4′,3′:4,5]thieno[2,3-d]pyrimidin-4(3H)-one] | 9.30 | 9.22 | – | –
13 | CN1CCc2c(sc3ncn(CCN4CCN(c5nc6ccccc6s5)CC4)c(=O)c23)C1 [Example 11, 3-{2-[4-(1,3-Benzothiazol-2-yl)piperazin-1-yl]ethyl}-7-methyl-5,6,7,8-tetrahydropyrido[4′,3′:4,5]thieno[2,3-d]pyrimidin-4(3H)-one] | – | – | 151 to 153 °C | –
14 | CN1CCc2c(sc3ncn(CCN4CCN(c5nc6ccccc6[nH]5)CC4)c(=O)c23)C1 [Example 8, 3-{2-[4-(1H-Benzimidazol-2-yl)piperazin-1-yl]ethyl}-7-methyl-5,6,7,8-tetrahydropyrido[4′,3′:4,5]thieno[2,3-d]pyrimidin-4(3H)-one] | – | – | 227 to 229 °C | –
15 | CN1CCc2c(sc3ncn(CCN4CC=C(c5csc6ccccc56)CC4)c(=O)c23)C1 [Example 28, 3-{2-[4-(1-Benzothien-3-yl)-3,6-dihydropyridin-1 (2H)-yl]ethyl}-7-methyl-5,6,7,8-tetrahydropyrido[4′,3′:4,5]thieno[2,3-d]pyrimidin-4(3H)-one] | 8.89 | 8.70 | – | –
16 | COc1ccc2c(c1)c(C1CCN(CCn3cnc4sc5c(c4c3=O)CCN(C)C5)CC1)cn2C [Example 16, 4-(5-Methoxy-1-methyl-1H-indol-3-yl)-1-[2-(7-methyl-4-oxo-5,6,7,8-tetrahydropyrido[4′,3′:4,5]thieno[2,3-d]pyrimidin-3(4H)-yl)ethyl]piperidinium chloride] | 8.89 | 8.64 | – | –
17 | CN1CCc2c(sc3ncn(CCN4CC=C(c5c[nH]c6ncccc56)CC4)c(=O)c23)C1 [Example 21, 1-[2-(7-Methyl-4-oxo-5,6,7,8-tetrahydropyrido[4′,3′:4,5]thieno[2,3-d]pyrimidin-3(4H)-yl)ethyl]-4-(1H-pyrrolo[2,3-b]pyridin-3-yl)-1,2,3,6-tetrahydropyridinium acetate] | 7.84 | 9.00 | – | –
18 | CN1CCc2c(sc3ncn(CCN4CCN(c5nsc6cccc(Cl)c56)CC4)c(=O)c23)C1 [Example 5, 3-{2-[4-(4-Chloro-1,2-benzisothiazol-3-yl)piperazin-1-yl]ethyl}-7-methyl-5,6,7,8-tetrahydropyrido[4′,3′:4,5]thieno[2,3-d]pyrimidin-4(3H)-one] | – | – | 88 to 89 °C | –
